Like-named read-outs stand apart in the source and are kept apart here.
Experiments:
EGFR L858R/T790M = target: T1, EGFR L858R/T790M (Homo sapiens, UniProt P00533, L858R/T790M); assay: Inhibition of EGFR L858R/T790M biochemical enzymatic activity (HTRF); conditions: EGFR L858R-T790M, 1 mM ATP, 1 h, room temperature, read-out: IC50 (nM) @L858R-T790M
T1 construct: purchased Carna Bio
Method in brief: (§1)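 Phosphorylation of TK Substrate-biotin (1 μM) was measured at 1 mM ATP over a 1 h room-temperature incubation with serially varied compound. Detection was by HTRF ratio and analysis by 4PL fit to IC50.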

EGFR[T790M/C797S/L858R] = target: T2, EGFR[T790M/C797S/L858R] (Homo sapiens, UniProt P00533, C797S/L858R/T790M); assay: Inhibition of EGFR[T790M/C797S/L858R] biochemical enzymatic activity (HTRF); conditions: EGFR T790M-C797S-L858R, 1 mM ATP, 1 h, room temperature, read-out: IC50 (nM) @T790M- C797S - L858R
T2 construct: purchased Carna Bio
Method in brief: as §1

[1] = target: T3, EGFR[T790M/C797S/d746-750] (Homo sapiens, UniProt P00533, C797S/DEL746-750/T790M); assay: Inhibition of EGFR[T790M/C797S/d746-750] biochemical enzymatic activity (HTRF); conditions: EGFR T790M-C797S-Del19, 1 mM ATP, 1 h, room temperature, read-out: IC50 (nM) @T790M - C797S - Del19
T3 construct: purchased Carna Bio
Method in brief: as §1

EGFR wild type = target: T4, EGFR wild type (Homo sapiens, UniProt P00533); assay: Inhibition of EGFR wild type biochemical enzymatic activity (HTRF); conditions: EGFR WT, 1 mM ATP, 1 h, room temperature, read-out: IC50 (nM) @WT
T4 construct: purchased Carna Bio
Method in brief: as §1

[2] = tested on: Ba/F3 cells expressing EGFR mutations; assay: Cell proliferation assay, Ba/F3 cells expressing EGFR mutations (CellTiter-Glo, 72 hours); format: cell-based; conditions: CellTiter-Glo
Method in brief: (§2)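 GI50 is the concentration giving 50% proliferation inhibition. Growth for this was normalised to a baseline viability reading taken when compound was added, and to DMSO wells. PC-9 (500 cells/well) and mutant-EGFR Ba/F3 (5000 cells/well) are treated after overnight seeding in RPMI1640-based medium.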

EGFR (d746-750 C797S) = target: T5, EGFR (d746-750 C797S) (Homo sapiens, UniProt P00533, C797S/DEL746-750); assay: Inhibition of EGFR (d746-750 C797S) biochemical enzymatic activity (HTRF); conditions: EGFR Del19-C797S, 1 mM ATP, 1 h, room temperature, read-out: IC50 (nM) @Del19-C797S
T5 construct: purchased signalchem
Method in brief: as §1

EGFR L858R = target: T6, EGFR L858R (Homo sapiens, UniProt P00533, L858R); assay: Inhibition of EGFR L858R biochemical enzymatic activity (HTRF); conditions: 1 mM ATP, 1 h, room temperature, read-out: IC50 (nM) @L858R
T6 construct: purchased Carna Bio
Method in brief: as §1

A-431 = assay: Cell proliferation GI50, A-431 cells (Table 6); format: cell-based; conditions: Homo sapiens, A-431, A-431 cells
EGFR Exon19Del/T790M = target: T7, EGFR Exon19Del/T790M (Homo sapiens, UniProt P00533, DEL746-750/T790M); assay: Inhibition of EGFR Exon19Del/T790M biochemical enzymatic activity (HTRF); conditions: EGFR Del19-T790M, 1 mM ATP, 1 h, room temperature, read-out: IC50 (nM) @Del19-T790M
T7 construct: purchased Carna Bio
Method in brief: as §1

EGFR (C797S L858R) = target: T8, EGFR (C797S L858R) (Homo sapiens, UniProt P00533, C797S/L858R); assay: Inhibition of EGFR (C797S L858R) biochemical enzymatic activity (HTRF); conditions: EGFR L858-C797S, 1 mM ATP, 1 h, room temperature, read-out: IC50 (nM) @L858-C797S
T8 construct: purchased signalchem
Method in brief: as §1

PC-9 = assay: Cell proliferation assay, PC-9 cells (CellTiter-Glo, 72 hours); format: cell-based; conditions: PC9 cells, CellTiter-Glo, read-out: PC9 GI50
Method in brief: as §2

EGFR Exon19Del = target: T9, EGFR Exon19Del (Homo sapiens, UniProt P00533, DEL746-750); assay: Inhibition of EGFR Exon19Del biochemical enzymatic activity (HTRF); conditions: EGFR Del19, 1 mM ATP, 1 h, room temperature, read-out: IC50 @Del19
T9 construct: purchased Carna Bio
Method in brief: as §1

[3] = BaF3 cells, EGFR DEL19-C797S, read-out: DEL19-C797S/BaF3 GI50
[4] = BaF3 cells, EGFR DEL19-T790-C797S, read-out: DEL19-T790-C797S/BaF3 GI50
[5] = BaF3 cells, EGFR L858R, read-out: L858R/BaF3 GI50
[6] = BaF3 cells, EGFR L858R-C797S, read-out: L858R-C797S/BaF3 GI50
[7] = BaF3 cells, EGFR L858R-T790-C797S, read-out: L858R-T790-C797S/BaF3 GI50
[8] = BaF3 cells, EGFR L858R-T790M, read-out: L858R-T790M/BaF3 GI50
[9] = EGFR DEL19-T790M, read-out: DEL19-T790M GI50
[10] = Mus musculus, BaF3, 72 h, BaF3 cells, EGFR DEL19-C797S, read-out: DEL19-C797S/BaF3 GI50
[11] = Mus musculus, BaF3, 72 h, BaF3 cells, EGFR DEL19-T790-C797S, read-out: DEL19-T790-C797S/BaF3 GI50
[12] = Mus musculus, BaF3, 72 h, BaF3 cells, EGFR L858R, read-out: L858R/BaF3 GI50
[13] = Mus musculus, BaF3, 72 h, BaF3 cells, EGFR L858R-C797S, read-out: L858R-C797S/BaF3 GI50
[14] = Mus musculus, BaF3, 72 h, BaF3 cells, EGFR L858R-T790-C797S, read-out: L858R-T790-C797S/BaF3 GI50
[15] = Mus musculus, BaF3, 72 h, BaF3 cells, EGFR L858R-T790M, read-out: L858R-T790M/BaF3 GI50
[16] = Mus musculus, BaF3, 72 h, EGFR DEL19-T790M, read-out: DEL19-T790M GI50

T8 sequence (P00533 25-1210 C797S/L858R): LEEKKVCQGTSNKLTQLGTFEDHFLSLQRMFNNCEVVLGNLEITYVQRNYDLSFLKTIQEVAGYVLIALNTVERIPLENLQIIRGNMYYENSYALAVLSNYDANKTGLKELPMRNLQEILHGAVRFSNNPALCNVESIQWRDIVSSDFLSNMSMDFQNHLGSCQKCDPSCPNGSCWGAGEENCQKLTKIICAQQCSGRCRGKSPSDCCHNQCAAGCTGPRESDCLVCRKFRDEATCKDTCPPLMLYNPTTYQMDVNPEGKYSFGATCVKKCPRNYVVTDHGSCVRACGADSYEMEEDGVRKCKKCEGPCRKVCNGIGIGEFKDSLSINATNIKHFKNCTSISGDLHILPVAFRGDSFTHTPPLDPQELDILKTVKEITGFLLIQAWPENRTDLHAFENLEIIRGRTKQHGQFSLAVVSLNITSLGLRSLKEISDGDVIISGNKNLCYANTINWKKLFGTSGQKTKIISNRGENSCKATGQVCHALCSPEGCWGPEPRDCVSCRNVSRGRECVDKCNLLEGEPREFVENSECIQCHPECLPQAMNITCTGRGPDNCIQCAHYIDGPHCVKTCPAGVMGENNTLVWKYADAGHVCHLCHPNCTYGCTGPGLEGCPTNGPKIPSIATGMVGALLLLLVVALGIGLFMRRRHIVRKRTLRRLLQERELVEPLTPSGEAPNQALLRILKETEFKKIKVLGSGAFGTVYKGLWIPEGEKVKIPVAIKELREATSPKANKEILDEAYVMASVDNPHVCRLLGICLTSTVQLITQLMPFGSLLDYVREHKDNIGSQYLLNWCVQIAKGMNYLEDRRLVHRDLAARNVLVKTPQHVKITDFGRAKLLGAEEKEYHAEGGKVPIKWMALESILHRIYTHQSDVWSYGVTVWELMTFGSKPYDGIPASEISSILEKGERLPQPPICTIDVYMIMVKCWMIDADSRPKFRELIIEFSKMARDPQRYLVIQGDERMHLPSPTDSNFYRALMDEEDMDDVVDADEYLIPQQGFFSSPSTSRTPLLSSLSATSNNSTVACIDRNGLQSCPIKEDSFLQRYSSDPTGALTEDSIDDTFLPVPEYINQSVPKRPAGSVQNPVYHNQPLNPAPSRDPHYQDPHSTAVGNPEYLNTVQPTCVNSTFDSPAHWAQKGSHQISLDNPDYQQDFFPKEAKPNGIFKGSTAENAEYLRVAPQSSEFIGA
T3 sequence (P00533 with tags, fused parts or gaps DEL746-750/T790M/C797S limits assumed): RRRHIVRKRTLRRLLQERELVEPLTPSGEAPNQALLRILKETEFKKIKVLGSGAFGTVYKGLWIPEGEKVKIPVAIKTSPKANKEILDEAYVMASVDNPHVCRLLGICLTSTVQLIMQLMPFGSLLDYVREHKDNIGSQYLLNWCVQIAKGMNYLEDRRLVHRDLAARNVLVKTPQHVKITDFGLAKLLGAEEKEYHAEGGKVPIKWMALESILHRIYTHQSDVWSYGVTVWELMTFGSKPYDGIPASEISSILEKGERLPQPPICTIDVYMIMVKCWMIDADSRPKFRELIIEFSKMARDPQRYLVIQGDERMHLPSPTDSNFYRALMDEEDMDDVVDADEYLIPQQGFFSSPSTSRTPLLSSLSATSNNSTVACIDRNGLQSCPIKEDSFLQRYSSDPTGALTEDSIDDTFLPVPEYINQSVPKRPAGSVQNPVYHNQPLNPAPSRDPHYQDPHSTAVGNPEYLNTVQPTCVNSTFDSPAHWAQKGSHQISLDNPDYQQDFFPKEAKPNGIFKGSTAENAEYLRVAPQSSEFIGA
T7 sequence (P00533 with tags, fused parts or gaps DEL746-750/T790M limits assumed): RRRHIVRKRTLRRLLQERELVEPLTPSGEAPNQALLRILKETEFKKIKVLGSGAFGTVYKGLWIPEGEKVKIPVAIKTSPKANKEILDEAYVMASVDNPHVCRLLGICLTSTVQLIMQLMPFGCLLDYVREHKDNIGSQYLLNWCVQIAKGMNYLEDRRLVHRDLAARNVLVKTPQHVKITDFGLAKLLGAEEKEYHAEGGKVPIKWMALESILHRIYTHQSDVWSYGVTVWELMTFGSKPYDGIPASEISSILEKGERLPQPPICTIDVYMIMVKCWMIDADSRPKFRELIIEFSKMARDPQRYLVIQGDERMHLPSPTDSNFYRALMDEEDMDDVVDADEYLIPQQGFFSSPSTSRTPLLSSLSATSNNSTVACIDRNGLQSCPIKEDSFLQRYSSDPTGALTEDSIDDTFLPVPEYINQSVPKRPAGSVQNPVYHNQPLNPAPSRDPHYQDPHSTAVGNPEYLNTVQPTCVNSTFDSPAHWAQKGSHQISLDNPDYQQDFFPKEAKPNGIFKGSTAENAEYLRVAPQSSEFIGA
T2 sequence (P00533 25-1210 T790M/C797S/L858R): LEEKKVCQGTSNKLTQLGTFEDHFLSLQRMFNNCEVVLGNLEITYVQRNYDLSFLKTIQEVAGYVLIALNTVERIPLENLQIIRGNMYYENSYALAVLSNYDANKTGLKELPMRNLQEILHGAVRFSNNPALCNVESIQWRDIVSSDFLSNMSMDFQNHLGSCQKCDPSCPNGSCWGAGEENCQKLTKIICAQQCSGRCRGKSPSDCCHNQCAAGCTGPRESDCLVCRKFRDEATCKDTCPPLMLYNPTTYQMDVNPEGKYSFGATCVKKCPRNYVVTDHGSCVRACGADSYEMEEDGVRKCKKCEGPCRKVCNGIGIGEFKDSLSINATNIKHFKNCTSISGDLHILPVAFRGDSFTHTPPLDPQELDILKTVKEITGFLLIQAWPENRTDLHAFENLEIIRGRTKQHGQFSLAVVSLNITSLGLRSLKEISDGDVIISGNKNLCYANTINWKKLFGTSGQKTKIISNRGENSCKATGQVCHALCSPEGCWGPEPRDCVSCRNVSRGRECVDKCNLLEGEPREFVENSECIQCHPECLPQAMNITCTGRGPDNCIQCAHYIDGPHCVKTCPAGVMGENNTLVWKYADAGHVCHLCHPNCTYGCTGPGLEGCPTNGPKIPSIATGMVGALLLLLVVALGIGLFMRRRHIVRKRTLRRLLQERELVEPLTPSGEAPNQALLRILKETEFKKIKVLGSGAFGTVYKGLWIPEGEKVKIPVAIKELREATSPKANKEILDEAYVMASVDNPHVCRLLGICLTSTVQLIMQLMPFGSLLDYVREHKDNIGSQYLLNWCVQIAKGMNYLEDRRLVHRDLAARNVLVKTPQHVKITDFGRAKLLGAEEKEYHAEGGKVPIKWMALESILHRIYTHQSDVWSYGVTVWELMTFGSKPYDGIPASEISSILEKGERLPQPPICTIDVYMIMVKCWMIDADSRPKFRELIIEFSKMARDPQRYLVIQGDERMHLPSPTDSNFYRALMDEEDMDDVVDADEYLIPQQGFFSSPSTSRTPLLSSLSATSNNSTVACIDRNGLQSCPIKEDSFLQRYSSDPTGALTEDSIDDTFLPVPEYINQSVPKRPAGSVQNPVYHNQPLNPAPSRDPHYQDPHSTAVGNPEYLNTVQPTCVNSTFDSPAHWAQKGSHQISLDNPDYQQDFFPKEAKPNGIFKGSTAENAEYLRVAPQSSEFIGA
T9 sequence (P00533 with tags, fused parts or gaps DEL746-750 limits assumed): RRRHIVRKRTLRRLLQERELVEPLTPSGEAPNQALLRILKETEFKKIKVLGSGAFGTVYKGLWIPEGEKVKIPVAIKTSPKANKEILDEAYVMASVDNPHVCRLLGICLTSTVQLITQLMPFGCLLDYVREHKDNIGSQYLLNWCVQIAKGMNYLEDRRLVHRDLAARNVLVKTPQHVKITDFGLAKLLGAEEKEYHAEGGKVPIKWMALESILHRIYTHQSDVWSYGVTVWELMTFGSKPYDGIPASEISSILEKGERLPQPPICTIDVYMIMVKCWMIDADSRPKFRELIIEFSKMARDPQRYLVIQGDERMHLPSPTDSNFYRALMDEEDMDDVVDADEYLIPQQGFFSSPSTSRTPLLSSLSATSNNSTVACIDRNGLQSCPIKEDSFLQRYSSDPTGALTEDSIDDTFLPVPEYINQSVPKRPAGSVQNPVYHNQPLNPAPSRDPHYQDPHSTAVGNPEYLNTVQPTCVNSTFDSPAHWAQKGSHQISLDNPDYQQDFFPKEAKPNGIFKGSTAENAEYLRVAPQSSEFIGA
T5 sequence (P00533 with tags, fused parts or gaps DEL746-750/C797S limits assumed): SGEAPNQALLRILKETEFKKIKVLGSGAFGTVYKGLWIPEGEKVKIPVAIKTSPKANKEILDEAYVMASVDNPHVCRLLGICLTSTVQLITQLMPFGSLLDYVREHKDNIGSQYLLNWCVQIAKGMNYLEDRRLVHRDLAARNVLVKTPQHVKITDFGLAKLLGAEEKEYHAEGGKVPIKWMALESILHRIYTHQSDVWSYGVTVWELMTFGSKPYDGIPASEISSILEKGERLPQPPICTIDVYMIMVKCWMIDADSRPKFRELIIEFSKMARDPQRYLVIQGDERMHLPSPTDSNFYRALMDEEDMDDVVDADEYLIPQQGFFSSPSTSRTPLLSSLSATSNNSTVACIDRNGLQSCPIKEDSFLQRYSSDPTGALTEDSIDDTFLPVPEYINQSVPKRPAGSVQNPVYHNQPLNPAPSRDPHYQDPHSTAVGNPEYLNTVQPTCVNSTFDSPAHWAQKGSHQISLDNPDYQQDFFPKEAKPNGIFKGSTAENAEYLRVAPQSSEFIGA

Compound | IC50 (EGFR L858R/T790M) [nM] | IC50 (EGFR[T790M/C797S/L858R]) [nM] | IC50 [1] [nM] | IC50 (EGFR wild type) [nM] | IC50 (EGFR (d746-750 C797S)) [nM] | IC50 (EGFR L858R) [nM] | GI50 (A-431) [nM] | IC50 (EGFR Exon19Del/T790M) [nM] | IC50 (EGFR (C797S L858R)) [nM] | IC50 (EGFR Exon19Del) [nM] | GI50 [2, 10] [nM] | GI50 [2, 11] [nM] | GI50 [2, 12] [nM] | GI50 [2, 13] [nM] | GI50 [2, 14] [nM] | GI50 [2, 15] [nM] | GI50 [2, 16] [nM] | GI50 (PC-9; Homo sapiens, PC-9, 72 h) [nM] | also measured
CN1CCC2(CC1)CN(c1ccc3nc4n(c3c1)C13CCC(CN(CCOc5c(cnn5C)-c5cc(cn(C)c5=O)C(=O)N4)C1)C3)C2 (single isomer, unassigned) [Example A77B] | 3.8 | 3.4 | 3.6 | 7.3 | 2.1 | 3.5 | 310 | 3.8 | 3.7 | 2.9 |  |  |  |  |  |  |  |  | GI50 [2, 3]: 0.72 nM; GI50 [2, 4]: 0.91 nM; GI50 [2, 5]: 0.89 nM; GI50 [2, 6]: 1.4 nM; GI50 [2, 7]: 1.3 nM; GI50 [2, 8]: 2.4 nM; GI50 [2, 9]: 0.85 nM; GI50 (PC-9): 2.1 nM
C[C@@H]1CCCOc2c(cnn2C)-c2cc(cn(C)c2=O)C(=O)Nc2nc3ccc(N4CCNCC4)c(Cl)c3n2C1 [Example A23, (11R)-15-chloro-5,11,26-trimethyl-16-(piperazin-1-yl)-7-oxa-4,5,13,20,22,26-hexaazapentacyclo[22.3.1.0^{2,6}.0^{13,21}.0^{14,19}]octacosa-1(28),2(6),3,14,16,18,20,24-octaene-23,27-dione] | 12 | 2.7 | 2.7 | > 5000 | 3 | 207 | 2820 | 3 | 61 | 4.7 | 4 | 11 | 104 | 32 | 12 | 151 | 10 | 208 | 
C[C@@H]1CCCOc2c(cnn2C)-c2cc(cn(C)c2=O)C(=O)Nc2nc3ccc(N4CCN(C5CC5)CC4)cc3n2C1 [Example A48] | 5 | 4.4 | 3.1 | 2250 | 2.1 | 40 | 573 | 2.8 | 28 | 3.1 | 9.4 | 48 | 20 | 26 | 21 | 94 | 53 | 38 | 
CN(C)[C@@H]1CCN(c2ccc3nc4n(c3c2)C23CCC(CN(CCOc5c(cnn5C)-c5cc(cn(C)c5=O)C(=O)N4)C2)C3)C1 (single isomer, unassigned) [Example A66D] | 1.7 | 2.1 | 1.6 | 18 | 1.1 | 3.7 | 473 | 2 | 3.7 | 2.7 |  |  |  |  |  |  |  |  | GI50 [2, 3]: 0.68 nM; GI50 [2, 4]: 1.5 nM; GI50 [2, 5]: 1.7 nM; GI50 [2, 6]: 3.2 nM; GI50 [2, 7]: 1.4 nM; GI50 [2, 8]: 7.2 nM; GI50 [2, 9]: 2 nM; GI50 (PC-9): 4.2 nM
Cn1ncc2c1OCCN1CC3(CCCC1C3)n1c(nc3ccc(N4CCOCC4)cc31)NC(=O)c1cc-2c(=O)n(C)c1 (stereo not drawn) [Example A9, 15,21-Dimethyl-5-(morpholin-4-yl)-23-oxa-2,9,11,15,20,21,26-heptaazaheptacyclo[24.4.1.1^{1,27}.1^{13,17}.0^{2,10}.0^{3,8}.0^{18,22}]tritriaconta-3,5,7,9,13,17(33),18(22),19-octaene-12,16-dione] | > 5000 | > 5000 | 316 | > 5000 | 536 | > 5000 | 3020 | 198 | > 5000 | 264 | 55 | 405 | 608 | 515 | 607 | 264 | 364 | 211 | 
Cn1ncc2c1OCCN1CC3CCC(CC3)(C1)n1c(nc3ccc(N4CCOCC4)cc31)NC(=O)c1cc-2c(=O)n(C)c1 [Example A74, 15,21-Dimethyl-5-(morpholin-4-yl)-23-oxa-2,9,11,15,20,21,26-heptaazaheptacyclo[26.2.2.1^{1,26}.1^{13,17}.0^{2,10}.0^{3,8}.0^{18,22}]tetratriaconta-3,5,7,9,13,17(34),18(22),19-octaene-12,16-dione] | 81 | 367 | 6.8 | > 5000 | 23 | 707 | 2370 | 8.6 | 573 | 24 | 4.5 | 40 | 41 | 41 | 60 | 104 | 37 | 84 | 
Cn1ncc2c1OCCN1CCCCC(C1)n1c(nc3ccccc31)NC(=O)c1cc-2c(=O)n(C)c1 (stereo not drawn) [Example A8, 15,21-Dimethyl-23-oxa-2,9,11,15,20,21,26-heptaazahexacyclo[24.4.1.1^{13,17}.0^{2,10}.0^{3,8}.0^{18,22}]dotriaconta-3,5,7,9,13,17(32),18(22),19-octaene-12,16-dione] | > 5000 | > 5000 | 226 | > 5000 | 256 | > 5000 | 3880 | 290 | 3550 | 368 | 93 | 401 | 180 | 332 | 214 | 977 | 256 | 180 | 

From patent US20260365670A1, “EGFR INHIBITORS AND USES THEREOF” (DIZAL (JIANGSU) PHARMACEUTICAL CO., LTD., priority 2022, published 2026)
